Results published in patent publication US9062037B2, “Tazarotene derivatives” (Stiefel Laboratories, Inc., priority 2009, dated 2015).
Like-named read-outs stand apart in the source and are kept apart here.

Assays:
[1] = test system: Reconstructed human epidermis (RHE) tissues; experiment: RT-qPCR gene expression of K10, K19, filaggrin, K4 and K13 in reconstructed human epidermis (RHE) cultures; assay type: cell-based; settings: 72 h, 2.83 mM in OD/10% DMSO, 6 μl
Protocol: Reconstructed human epidermis (RHE) tissues were cultured in-house as previously described by Poumay et al. Briefly, polycarbonate culture inserts (12 mm diameter and 0.4 μm pore size, Millipore) were filled with 150 μL of a suspension containing approximately 5×10^5 primary adult human keratinocytes. The inserts received another 500 μL of keratinocyte culture media and were placed in a 6-well plate (1 insert/well) containing 2.5 mL of RHE Growth Media (Epilife media +1.5 mM CaCl2). RHE cultures were incubated at 37° C. in a humidified atmosphere containing 5% CO2, for 24 hours. Subsequently (on Day 0), RHE cultures were exposed to the air-liquid interface by removing the RHE Growth Media from the top of the cultures, and replacing with 1.5 mL/well of RHE Growth Media containing 50 μg/mL vitamin C. Media was changed every other day until the cultures were dosed with Test Articles. A stock solution of 0.1% tazarotene (2.83 mM at 99.5% purity) in OD/10% DMSO was prepared. For tazarotene benzoate, hydroxytazarotenic acid, keto tazarotenic acid, keto tazarotene, and tazarotene nicotinate, a 10 mg/mL stock solution (in DMSO) was already prepared. From this stock solution, a 2.83 mM working solution (in octyldodecanol) was prepared. All other tested compounds were resuspended in DMSO and OD to obtain a final concentration of 2.83 mM in OD/10% DMSO. On Day 12, the cultures were placed in 60 mm petri dishes containing 3 mL of RHE Growth Media (+VitC). Test articles (6 μl) were applied to triplicate cultures and cultures were incubated at 37° C. for 72 hours. Untreated and OD alone served as negative controls. At the end of the incubation period, the growth media was collected and stored at −20° C. The tissues were cut in half: one half was placed in 10% NBF for histology, and the other half was placed in RNAlater™ solution for RT-qPCR. RNA was isolated and concentrations were determined using a NanoDrop spectrophotometer. In addition to using the same amount of RNA for each sample, data was normalized to internal GAPDH mRNA levels and is expressed as relative quantification (RQ) to untreated controls. RNA extracts from each replicate were amplified using RT-qPCR. The relative gene expression of five biomarkers was determined: Keratin 10, Keratin 19, Filaggrin, Keratin 4, and Keratin 13.

[2] = Metabolism in the presence of human skin microsomes; settings: human skin microsomes; paraoxon 0, 10 or 100 μM
Protocol: Hepatic microsomal reactions were carried out in microcentrifuge tubes in the following manner. Human liver microsomes (0.5 or 1.0 mg/ml protein), Test Article (1 or 10 μM), paraoxon (0, 10 or 100 μM), NADPH regenerating system (10 mM glucose-6-phosphate, 1 unit/ml glucose-6-phosphate dehydrogenase, 1 mM NADP^+), magnesium chloride (5 mM) in 0.1 M potassium phosphate buffer, pH 7.4 were incubated at 37° C. in a shaking water bath. Reactions were initiated with the addition of substrate with the exception of the zero-time incubations. The total reaction volume was 0.2 ml. The reactions were incubated for 15, 30, 45 or 60 minutes, terminated with 0.2 ml ice-cold acetonitrile and then placed on ice. For zero-time incubations, ice cold acetonitrile was added to the mixture containing microsomes, along with NADPH regenerating system, magnesium chloride in phosphate buffer and the Test Article. Each time point was carried out in triplicate.
Five time points were chosen, but because of the limitation of human skin microsome supply, each one was carried out in duplicate. Skin microsomal reactions were carried out as described above for hepatic microsomal reactions with the following two exceptions. Firstly, the total reaction volume was 0.1 mL. Secondly, incubations were terminated with 0.1 mL acetonitrile.

[3] = read-out: K4 Fold Change vs Untreated/OD controls (upregulation)
[4] = read-out: K13 Fold Change vs Untreated/OD controls (upregulation)
[5] = read-out: K19 Fold Change vs Untreated/OD controls (upregulation)
[6] = human liver microsomes, paraoxon 0, 10 or 100 μM

`CCOC(=O)c1ccc(C#Cc2ccc3c(c2)C(C)(C)CC(OC(=O)CC)S3)nc1` (stereo not drawn) [Compound 24] showed a fold induction at 2830 µM [1, 3] of 74, a fold induction at 2830 µM [1, 4] of 23 and a fold induction at 2830 µM [1, 5] of 33 to 43.
Work on `CC1(C)CC(=O)Sc2ccc(C#Cc3ccc(C(=O)O)cn3)cc21` [Compound 11, 6-((4,4-dimethyl-2-oxothiochroman-6-yl)ethynyl)nicotinic acid] yielded a fold induction at 2830 µM [1, 3] of 52, a fold induction at 2830 µM [1, 4] of 20 and a fold induction at 2830 µM [1, 5] of 21.
Molecule `CC1(C)CC(O)Sc2ccc(C#Cc3ccc(C(=O)O)cn3)cc21` (stereo not drawn) [Compound 10, 6-((2-hydroxy-4,4-dimethylthiochroman-6-yl)ethynyl)nicotinic acid] has a fold induction at 2830 µM [1, 3] of 65, a fold induction at 2830 µM [1, 4] of 11 and a fold induction at 2830 µM [1, 5] of 25.
In the case of `CCOC(=O)c1ccc(C#Cc2ccc3c(c2)C(C)(C)CC(OC(=O)CO)S3)nc1` (stereo not drawn) [Compound 15, 6-[2-(2-Hydroxy-acetoxy)-4,4-dimethyl-thiochroman-6-ylethynyl]-nicotinic acid ethyl ester], the fold induction at 2830 µM [1, 3] is reported as 64, the fold induction at 2830 µM [1, 4] is reported as 12 and the fold induction at 2830 µM [1, 5] is reported as 33 to 43.
For `CCOP(=O)(OCC)Oc1ccc([N+](=O)[O-])cc1` [Paraoxon], the “inhibition of tazarotene benzoate metabolism to hydroxy tazarotenic acid” value [2] was “inhibited”, the “inhibition of the metabolism of tazarotenic acid to tazarotenic acid sulfoxide” value (CYP- and FMO-mediated reaction) was “did not inhibit” and the “inhibition of tazarotene benzoate metabolism to hydroxy tazarotenic acid” value [6] was “inhibited”. The “inhibition of tazarotene metabolism to tazarotenic acid” value [6] was “inhibited” and the “inhibition of tazarotene sulfoxide metabolism to tazarotenic acid sulfoxide” value [6] was “inhibited”.
In the case of `CCOC(=O)c1ccc(C#Cc2ccc3c(c2)C(C)(C)C[C@@H](OC(=O)c2cccnc2)S3)nc1` [Compound 8, (S)-6-[4,4-dimethyl-2-(pyridine-3-carbonyloxy)thiochroman-6-ylethynyl]nicotinic acid ethyl ester], the fold induction at 2830 µM [1, 3] is reported as 35, the fold induction at 2830 µM [1, 4] is reported as 7 and the fold induction at 2830 µM [1, 5] is reported as 18.
With `CCCC(=O)OC1CC(C)(C)c2cc(C#Cc3ccc(C(=O)OCC)cn3)ccc2S1` (stereo not drawn) [Compound 18, Ethyl 6-[(2-n-butyryloxyl-4,4-dimethyl-3,4-dihydro-2-thiochromen-6-yl)ethynyl]pyridine-3-carboxylate] the fold induction at 2830 µM [1, 3] was 60, the fold induction at 2830 µM [1, 4] was 9 and the fold induction at 2830 µM [1, 5] was 22.
Molecule `CCOC(=O)c1ccc(C#Cc2ccc3c(c2)C(C)(C)CC(OC(=O)c2ccccc2O)S3)nc1` (stereo not drawn) [Compound 25, Ethyl 6-[(2-salicylicyl-4,4-dimethyl-3,4-dihydro-2-thiochromen-6-yl)ethynyl]pyridine-3-carboxylate] has a fold induction at 2830 µM [1, 3] of 103 to 180, a fold induction at 2830 µM [1, 4] of 17 and a fold induction at 2830 µM [1, 5] of 23.
In the case of `CC/C=C\C/C=C\C/C=C\CCCCCCC(=O)OC1CC(C)(C)c2cc(C#Cc3ccc(C(=O)OCC)cn3)ccc2S1` (stereo not drawn) [Compound 22], the fold induction at 2830 µM [1, 3] is reported as 38, the fold induction at 2830 µM [1, 4] is reported as 10 and the fold induction at 2830 µM [1, 5] is reported as 12.
With `CCOC(=O)c1ccc(C#Cc2ccc3c(c2)C(C)(C)C[C@@H](OC(=O)c2ccccc2)S3)nc1` [Compound 5, (S)-6-(2-(2-benzoyloxy-4,4-dimethylthiochroman-6-yl)ethynyl) nicotinic acid, ethyl ester] the fold induction at 2830 µM [1, 3] was 45, the fold induction at 2830 µM [1, 4] was 7 and the fold induction at 2830 µM [1, 5] was 8.
With `CCCCCCCCCCCCCCCC(=O)OC1CC(C)(C)c2cc(C#Cc3ccc(C(=O)OCC)cn3)ccc2S1` (stereo not drawn) [Compound 13] the fold induction at 2830 µM [1, 3] was 38, the fold induction at 2830 µM [1, 4] was 6 and the fold induction at 2830 µM [1, 5] was 4.
For `CCOC(=O)c1ccc(C#Cc2ccc3c(c2)C(C)(C)CC(OC(=O)C(C)C)S3)nc1` (stereo not drawn) [Compound 20, Ethyl 6-[(2-isobutyryloxy-4,4-dimethyl-3,4-dihydro-2-thiochromen-6-yl)ethynyl]pyridine-3-carboxylate], the fold induction at 2830 µM [1, 3] was 22, the fold induction at 2830 µM [1, 4] was 6 and the fold induction at 2830 µM [1, 5] was 15.
For `CCCCCCCCCCCC(=O)OC1CC(C)(C)c2cc(C#Cc3ccc(C(=O)OCC)cn3)ccc2S1` (stereo not drawn) [Compound 19], the fold induction at 2830 µM [1, 3] was 19, the fold induction at 2830 µM [1, 4] was 2 and the fold induction at 2830 µM [1, 5] was 2.
Molecule `CCOC(=O)c1ccc(C#Cc2ccc3c(c2)C(C)(C)CC(OC(=O)CCCCCCCC(=O)OC)S3)nc1` (stereo not drawn) [Compound 28] has a fold induction at 2830 µM [1, 3] of 103 to 180, a fold induction at 2830 µM [1, 4] of 18 and a fold induction at 2830 µM [1, 5] of 30.
`CCOC(=O)c1ccc(C#Cc2ccc3c(c2)C(C)(C)CC(OC(=O)COC)S3)nc1` (stereo not drawn) [Compound 16] showed a fold induction at 2830 µM [1, 3] of 69, a fold induction at 2830 µM [1, 4] of 9 and a fold induction at 2830 µM [1, 5] of 20.
Molecule `CCOC(=O)c1ccc(C#Cc2ccc3c(c2)C(C)(C)C[C@H](OC(=O)c2cccnc2)S3)nc1` [Compound 9, (R)-6-[4,4-dimethyl-2-(pyridine-3-carbonyloxy)thiochroman-6-ylethynyl]nicotinic acid ethyl ester] has a fold induction at 2830 µM [1, 3] of 32, a fold induction at 2830 µM [1, 4] of 5 and a fold induction at 2830 µM [1, 5] of 17.
In the case of `CCOC(=O)c1ccc(C#Cc2ccc3c(c2)C(C)(C)C[C@H](OC(=O)c2ccccc2)S3)nc1` [Compound 6, (R)-6-(2-(2-benzoyloxy-4,4-dimethylthiochroman-6-yl)ethynyl)nicotinic acid, ethyl ester], the fold induction at 2830 µM [1, 3] is reported as 20, the fold induction at 2830 µM [1, 4] is reported as 7 and the fold induction at 2830 µM [1, 5] is reported as 8.
In the case of `CCOC(=O)c1ccc(C#Cc2ccc3c(c2)C(C)(C)CC(OC(C)=O)S3)nc1` (stereo not drawn) [Compound 17], the fold induction at 2830 µM [1, 3] is reported as 103 to 180, the fold induction at 2830 µM [1, 4] is reported as 15 and the fold induction at 2830 µM [1, 5] is reported as 24.
Molecule `CCOC(=O)c1ccc(C#Cc2ccc3c(c2)C(C)(C)CC(OC(=O)CCCCC(=O)OC)S3)nc1` (stereo not drawn) [Compound 27, Ethyl 6-[(2-monomethyladopyl-4,4-dimethyl-3,4-dihydro-2-thiochromen-6-yl)ethynyl]pyridine-3-carboxylate] has a fold induction at 2830 µM [1, 3] of 70, a fold induction at 2830 µM [1, 4] of 19 and a fold induction at 2830 µM [1, 5] of 33 to 43.
In the case of `CCOC(=O)c1ccc(C#Cc2ccc3c(c2)C(C)(C)CC(OC(=O)[C@@H](N)C(C)C)S3)nc1` (stereo partly drawn) [Compound 29, 6-[2-((S)-2-Amino-3-methyl-butyryloxy)-4,4-dimethyl-thiochroman-6-ylethynyl]-nicotinic acid ethyl ester], the fold induction at 2830 µM [1, 3] is reported as 71, the fold induction at 2830 µM [1, 4] is reported as 13 and the fold induction at 2830 µM [1, 5] is reported as 29.
`CCOC(=O)c1ccc(C#Cc2ccc3c(c2)C(C)(C)CC(O)S3)nc1` (stereo not drawn) [Compound 14, Ethyl 6-[(2-hydroxy-4,4-dimethyl-3,4-dihydro-2-thiochromen-6-yl)ethynyl]pyridine-3-carboxylate] showed a fold induction at 2830 µM [1, 3] of 87, a fold induction at 2830 µM [1, 4] of 20 and a fold induction at 2830 µM [1, 5] of 29.
In the case of `CCOc1ccc2ccc(=O)oc2c1` [7-ethoxycoumarin], the “metabolized by human liver microsomes (positive control)” value (initial concentration 10 μM, 0 or 30 minutes) is reported as “as expected”.
Molecule `CCOC(=O)c1ccc(C#Cc2ccc3c(c2)C(C)(C)CC(OC(=O)C2CCN(C)CC2)S3)nc1` (stereo not drawn) [Compound 23] has a fold induction at 2830 µM [1, 3] of 73, a fold induction at 2830 µM [1, 4] of 19 and a fold induction at 2830 µM [1, 5] of 33 to 43.
With `CCOC(=O)c1ccc(C#Cc2ccc3c(c2)C(C)(C)CC(OC(=O)C2CCOCC2)S3)nc1` (stereo not drawn) [Compound 26] the fold induction at 2830 µM [1, 3] was 90, the fold induction at 2830 µM [1, 4] was 10 and the fold induction at 2830 µM [1, 5] was 20.
In the case of `CCOC(=O)c1ccc(C#Cc2ccc3c(c2)C(C)(C)CC(=O)S3)nc1` [Compound 12, ethyl 6-((4,4-dimethyl-2-oxothiochroman-6-yl)ethynyl)nicotinate], the fold induction at 2830 µM [1, 3] is reported as 103 to 180, the fold induction at 2830 µM [1, 4] is reported as 15 and the fold induction at 2830 µM [1, 5] is reported as 27.
